Results taken from paper PMC5626944 (Frontiers in Pharmacology, 2017).
Like-named read-outs stand apart in the source and are kept apart here.

How the values were obtained:
[1] = test system: T1, Adenosine Transporter (h); test: NovaScreen competition binding; set-up: species or system human; details: 1 µM
T1 construct: PerkinElmer – Caliper Life Sciences (NovaScreen service)

[2] = test system: Muscarinic, M3 (h); test: NovaScreen competition binding; set-up: species or system human; details: 1 µM
[3] = test system: Serotonin, 5HT7 (h); test: NovaScreen competition binding; set-up: species or system human; details: 1 µM
[4] = test system: Serotonin, 5HT1A (h); test: NovaScreen competition binding; set-up: species or system human; details: 1 µM
[5] = test system: Esterase, Acetylcholine; test: NovaScreen enzyme assay; assay type: biochemical; details: 1 µM
[6] = test system: WT and α6L9′S mice; test: Locomotor assay in a novel environment; assay type: in vivo, mouse; details: 0.5 μmol/kg ip (nicotine 0.08 mg/kg, TC299423 0.09 mg/kg)
Method: Mice were habituated to the experimental room for 2 h prior to the experiment. Horizontal locomotor activity was recorded using an infrared photobeam activity cage system (San Diego Instruments; San Diego, CA, United States). After habituating to the experimental room, mice were placed singly in a novel cage. Ambulations were recorded when two contiguous photobeams were broken in succession, preventing activity from being recorded by most sedentary animals. Ambulation events were measured for 45 min with four 15 s intervals per min. Mice were given a total of two intraperitoneal (ip) injections. First, mice were pre-injected with saline or 1 mg/kg mecamylamine before being placed in the activity cages.

[7] = test system: Nitric Oxide, NOS (Neuronal-Binding); test: NovaScreen competition binding; details: 1 µM
[8] = test system: T2, Leukotriene, LTD4 (CysLT1); test: NovaScreen competition binding; details: 1 µM
T2 construct: PerkinElmer – Caliper Life Sciences (NovaScreen service)

[9] = biological target: α6β2* nAChRs (Mus musculus, UniProt Q9ERK7+Q9R0W9); test: biochemical; assay type: biochemical; details: for EC50: read-out: Neurotransmitter release EC50 (converted); for Emax: relative to nicotine
Method: Regions of interest were dissected from fresh mouse brains and homogenized in ice-cold isotonic sucrose (0.32 M), buffered with HEPES (5 mM, pH 7.5). The suspension was centrifuged at 12,000 × g for 20 min. The pellet was re-suspended in the appropriate uptake buffer ([Grady et al., 2001]; [Salminen et al., 2004]; [Marks et al., 2006]) and used immediately.
Superfusion was carried out at 22°C using a buffer containing: NaCl, 128 mM; KCl, 2.4 mM; CaCl2, 3.2 mM; MgSO4, 1.2 mM; KH2PO4, 1.2 mM; HEPES, 25 mM; glucose, 10 mM; ascorbic acid, 1 mM; pargyline, 0.01 mM; 0.1% BSA; nomifensine, 1 μM (to prevent the re-uptake of dopamine); atropine, 1 μM (to prevent muscarinic receptor activation); pH 7.5. Superfusion proceeded at 0.7 mL/min for 10 min before stimulation with agonist for 20 s. Selected aliquots were perfused with α-CtxMII (50 nM) for 3 min immediately before stimulation. This concentration of α-CtxMII was sufficient to inhibit α6β2^∗-nAChRs in the mouse striatum ([Salminen et al., 2004], [2007]). Fractions (∼0.1 mL) were collected into 96-well plates at 10 s intervals for 4 min (starting ∼1 min before stimulation). After adding 0.15 mL of Optiphase SuperMix scintillation cocktail, radioactivity was measured using a 1450 MicroBeta TriLux counter (Perkin Elmer Life Sciences).

[10] = biological target: T3, High-sensitivity α4(2)β2(3) nAChRs (Mus musculus, UniProt O70174+Q9ERK7); test: 86Rb+ efflux from thalamic and cortical synaptosomes, DhβE-sensitive component; assay type: biochemical
T3 construct: from tissue; host or cells: WT mouse thalamic and cortical synaptosomes
Method: Regions of interest were dissected from fresh mouse brains and homogenized in ice-cold isotonic sucrose (0.32 M), buffered with HEPES (5 mM, pH 7.5). The suspension was centrifuged at 12,000 × g for 20 min.

[11] = test system: WT, α6L9′S, α6KO, α4KO and β2KO mice; test: Conditioned place preference; assay type: in vivo, mouse; details: for ED50: Mus musculus, read-out: CPP ED50
Excerpt: Male, 3–6-month-old mice were used in our CPP assays. Various genotypes were used: WT, α6L9′S, α4L9′S (hypersensitive […]), α6KO, α4KO, and β2KO. All WT mice were C57BL/6J and all other genotypes have been backcrossed with C57BL/6J mice for ≥10 generations. The CPP apparatus (Med Associates, East Fairfield, VT, United States) was a rectangular cage with interior dimensions of 46.5 × 12.7 × 12.7(H) cm, divided into three sub-compartments: white and black (each 16.8 cm L) with steel mesh and rod floors, respectively, and a central gray compartment (7.2 cm L) with a solid plastic floor. […] Drop-down doors separated the chambers.
Mice were housed singly and habituated to the experimental room for 3–7 days before initial testing and remained in the experimental room for the duration of the experiment. We chose a biased method for CPP. On day 1 (pre-training) mice were placed in the center chamber and allowed to explore the apparatus freely for 20 min. Time spent in each chamber was recorded, and drug pairing was determined by the least preferred chamber. Mice with a severe initial bias for one chamber (defined as ≥65% time spent in one conditioning chamber) were excluded. On days 2, 4, 6, and 8, mice were injected with the drug of interest, and were confined to the drug-paired chamber for 20 min. On days 3, 5, 7, and 9, mice were injected with saline and confined to the opposite chamber. On day 10 (post-training), mice were again given free access to the apparatus for 20 min, and the time spent in each chamber was recorded. CPP was determined by measuring the change in the difference between the time spent in the drug-paired chamber and the saline-paired chamber from pre- to post-training.

[12] = test system: Leukotriene, LTB4 (BLT); test: NovaScreen competition binding; details: 1 µM
[13] = test system: T4, Adrenergic, Alpha 2C (h); test: NovaScreen competition binding; set-up: species or system human; details: 1 µM
T4 construct: PerkinElmer – Caliper Life Sciences (NovaScreen service)

[14] = test system: Muscarinic, M2 (h); test: NovaScreen competition binding; set-up: species or system human; details: 1 µM

Chain of α6β2* nAChRs (Q9R0W9 31-494): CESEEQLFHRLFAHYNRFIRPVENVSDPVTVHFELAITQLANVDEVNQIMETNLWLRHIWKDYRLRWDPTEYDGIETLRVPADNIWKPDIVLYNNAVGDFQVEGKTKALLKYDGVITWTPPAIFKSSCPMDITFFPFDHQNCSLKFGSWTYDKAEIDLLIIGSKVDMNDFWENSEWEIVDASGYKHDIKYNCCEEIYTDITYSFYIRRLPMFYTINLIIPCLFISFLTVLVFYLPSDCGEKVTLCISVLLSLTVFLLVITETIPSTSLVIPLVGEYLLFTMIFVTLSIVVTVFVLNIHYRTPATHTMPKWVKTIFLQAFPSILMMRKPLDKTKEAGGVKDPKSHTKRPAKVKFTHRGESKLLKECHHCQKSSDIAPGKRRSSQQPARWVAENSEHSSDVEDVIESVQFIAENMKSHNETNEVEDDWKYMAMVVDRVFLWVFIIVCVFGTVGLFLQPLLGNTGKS
Chain of α6β2* nAChRs (Q9ERK7 26-501): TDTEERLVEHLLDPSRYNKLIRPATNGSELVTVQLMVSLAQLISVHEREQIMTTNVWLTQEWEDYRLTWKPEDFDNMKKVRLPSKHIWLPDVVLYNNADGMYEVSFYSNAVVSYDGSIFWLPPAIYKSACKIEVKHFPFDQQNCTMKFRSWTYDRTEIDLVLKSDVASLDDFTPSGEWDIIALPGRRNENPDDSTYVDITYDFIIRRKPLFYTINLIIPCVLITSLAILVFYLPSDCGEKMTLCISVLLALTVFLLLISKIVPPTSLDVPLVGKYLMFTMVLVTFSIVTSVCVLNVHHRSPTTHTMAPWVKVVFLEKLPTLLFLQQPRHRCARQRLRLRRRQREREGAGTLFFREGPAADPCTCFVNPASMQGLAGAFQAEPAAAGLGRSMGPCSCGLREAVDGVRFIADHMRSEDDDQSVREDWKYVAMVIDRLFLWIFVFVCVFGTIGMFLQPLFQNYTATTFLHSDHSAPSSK
Chain of α6β2* nAChRs (Q8BMN3 31-464 partner): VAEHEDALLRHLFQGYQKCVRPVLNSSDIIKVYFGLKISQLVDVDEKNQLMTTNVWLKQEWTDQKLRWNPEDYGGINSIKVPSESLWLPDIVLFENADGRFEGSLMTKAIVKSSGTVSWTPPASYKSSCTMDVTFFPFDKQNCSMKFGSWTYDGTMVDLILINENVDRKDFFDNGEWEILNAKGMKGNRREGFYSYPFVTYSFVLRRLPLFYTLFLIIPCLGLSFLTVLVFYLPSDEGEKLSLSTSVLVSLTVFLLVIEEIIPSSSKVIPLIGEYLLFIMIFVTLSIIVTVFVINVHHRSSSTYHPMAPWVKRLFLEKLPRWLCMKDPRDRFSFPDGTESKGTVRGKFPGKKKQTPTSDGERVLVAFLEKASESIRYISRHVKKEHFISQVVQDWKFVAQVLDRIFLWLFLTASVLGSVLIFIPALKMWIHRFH
T3 sequence (Q9ERK7 26-501): as the sequence (Q9ERK7 26-501) above
T3 sequence (O70174 31-629): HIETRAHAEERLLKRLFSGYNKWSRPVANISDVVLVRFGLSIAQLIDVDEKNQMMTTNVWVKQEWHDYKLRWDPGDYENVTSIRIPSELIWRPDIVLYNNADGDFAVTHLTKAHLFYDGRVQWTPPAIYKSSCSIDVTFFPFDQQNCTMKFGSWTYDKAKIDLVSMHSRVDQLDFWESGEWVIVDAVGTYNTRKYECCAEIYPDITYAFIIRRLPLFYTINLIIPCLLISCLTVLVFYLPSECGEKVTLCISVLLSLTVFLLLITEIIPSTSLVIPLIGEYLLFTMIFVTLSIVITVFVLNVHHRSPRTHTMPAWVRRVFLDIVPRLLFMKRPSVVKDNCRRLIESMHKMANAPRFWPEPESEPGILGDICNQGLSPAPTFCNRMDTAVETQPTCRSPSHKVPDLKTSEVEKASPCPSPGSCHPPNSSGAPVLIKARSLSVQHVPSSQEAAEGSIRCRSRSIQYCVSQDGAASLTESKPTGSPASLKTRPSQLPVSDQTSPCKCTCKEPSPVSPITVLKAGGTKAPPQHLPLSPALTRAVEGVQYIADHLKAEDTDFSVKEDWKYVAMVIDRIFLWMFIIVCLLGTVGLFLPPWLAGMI

C1=C(/c2cncnc2)CCCNCC/1 [TC299423, (E)-5-(pyrimidin-5-yl)-1,2,3,4,7,8-hexahydroazocine]
Hit [1]: FALSE | Inhibition ([1]; [3H]-NBTI): 12.86% | Hit [2]: FALSE | Inhibition ([2]; [3H]Scopolamine, N-Methyl): -4.77% | Hit [3]: FALSE | Inhibition ([3]; [3H]LSD): -2.10% | Hit [4]: FALSE | Inhibition ([4]; [3H]-8-OH-DPAT): 17.60% | Hit [5]: FALSE | Inhibition ([5]; substrate Acetylthiocholine): 21.55% | Ambulatory activity in a novel environment ([6]; WT mice): Neither TC299423 nor nicotine affected WT ambulation | Ambulatory activity in a novel environment ([6]; α6L9′S mice): dramatically increased the ambulatory activity | Hit [7]: FALSE | Inhibition ([7]; [3H]NOARG): -10.86% | Hit [8]: FALSE | Inhibition ([8]; [3H]LTD4): -8.26% | EC50 ([9]; WT striatal synaptosomes): 30 ± 0.006 nM | Maximal response, α-CtxMII-sensitive [3H]-dopamine release ([9]; calculated from Michaelis–Menten curve fit): 0.93 ± 0.08 units | Emax ([9]; read-out: Neurotransmitter release % Efficacy, WT striatal synaptosomes): 50 ± 20% | Emax ([9]; read-out: Neurotransmitter release % Efficacy, α5KO striatal synaptosomes): 54 ± 14% | EC50 ([9]; α5KO striatal synaptosomes): 50 nM | 86Rb+ efflux Efficacy ([10]; Cortex): 94 ± 7% | EC50 ([10]; Cortex, read-out: 86Rb+ efflux EC50): 2000 ± 2000 nM | 86Rb+ efflux Efficacy ([10]; Thalamus): 139 ± 14% | EC50 ([10]; Thalamus, read-out: 86Rb+ efflux EC50): 600 ± 100 nM | EC50 ([10]; thalamic and cortical synaptosomes, read-out: EC50 for the DhβE-sensitive α4β2* nAChRs): 600 to 2000 nM | CPP difference scores in α4KO mice vs WT ([11]; 0.012 mg/kg): no effect | CPP difference scores in α6KO and β2KO mice vs WT ([11]; 0.012 mg/kg): dramatically reduced | ED50 ([11]; WT mice, Michaelis–Menten fit): 4 ± 3 µg/kg | ED50 ([11]; α6L9′S mice): < 1 µg/kg | CPP difference score vs saline-injected control ([11]; WT mice, 0.012 mg/kg, t-test p = 0.047): marginally significant increase | Overall effect on CPP ([11]; WT mice, 1, 4, 12, 25 μg/kg, one-way ANOVA): no significant overall effect | Overall effect on the CPP difference score ([11]; α6L9′S mice, 1, 4, 12, 25 μg/kg, one-way ANOVA): highly significant overall effect | CPP difference score vs saline-injected controls ([11]; α6L9′S mice, 1 and 25 μg/kg, Tukey HSD p < 0.05): significantly greater than the saline-injected controls | Hit [12]: FALSE | Inhibition ([12]; [3H]LTB4): 29.86% | Hit [13]: FALSE | Inhibition ([13]; [3H]MK-912): 6.28% | Hit [14]: FALSE | Inhibition ([14]; [3H]Scopolamine, N-Methyl): -3.18%
